The text below walks through data of patent EP0358880B1, “Use of retinoids” (F. HOFFMANN-LA ROCHE AG, priority 1988, dated 1990).

Marks after values point to notes of the source that are not given here.

Test [1] relates to UVB-Induced Dermal Damage in the Hairless Mouse. In words: Repair of UVB-induced dermal damage in the hairless mouse (repair zone by histology, Luna's stain, image analyzer). The class given is in vivo, Hairless mice (HRS/J strain). The conditions noted are these: three times per week, 10 weeks, total area per twenty microscopic fields. The text has this:
Hairless mice (HRS/J strain, Jackson Labs, 5-7 weeks old at the start of the experiments) were irradiated three times per week with a bank of 8 Westinghouse® Sunlamps (FS40) placed about 20cm above the animals. The radiation dose was controlled by an International Light Model IL844A Phototherapy Exposure Control and a detector. The UVB dosing schedule was such that individual doses, seldom exceeding 0.06J/cm², caused minimal erythema but no burning or scarring. There was significant elastosis, detected by histology, after a total dose of about 3.5J/cm²: this was confirmed in measurements of elastin in whole skin by means of a radioimmunoassay for desmosine. Desmosine is found in elastin hydrolysates and is derived from crosslinks in the elastin molecule; it is a reliable index of total elastin. Typically, desmosine increased by about 2-3 fold after 3.5J/cm² of UVB irradiation. To effect repair of the dermal damage, the UVB irradiation was discontinued and animals were treated three times per week with various concentrations of the compounds of formula I dissolved in acetone. Solutions were made up freshly every week at concentrations such that the dose was delivered in 100µl acetone and applied topically to an area of about 10 cm² on the back of the animal with a plastic pipette; a control group treated with acetone alone was also included. After 10 weeks of treatment the animals were sacrificed, skin samples were taken and processed by standard methods. A six µm [micron] section from each animal was stained for elastin with Luna's stain and the degree of repair measured quantitatively. In this model, repair is defined by the appearance of a normalized dermis extending from the epidermis down to the layer of compressed elastin. The extent of repair was reflected by the width of this zone. In these studies, the area of the zone on a standard length of histological section was measured by an image analyzer and the results are given as total area in mm² per twenty microscopic fields. Data was analyzed by Student's t-test. The results are given in Table I. In Table I, and Table II each group dosed at a particular concentration of compound of formula I contained six to ten animals.

The test system of test [2] is Wrinkles Produced in Hairless Mice by UVB-Irradiation. Kind of test: Effect on wrinkles produced in hairless mice by UVB irradiation (skin replica, visual Wrinkle Index). Format: in vivo. The text has this:
Hairless mice (HRS/J strain, Jackson Labs, 5-7 weeks old at the start of the experiments) were irradiated three times per week with a bank of 8 Westinghouse® Sunlamps (FS40) placed about 20cm above the animals. The radiation dose was controlled by an International Light Model IL844A Phototherapy Exposure Control and a detector. The UVB dosing schedule was such that individual doses, seldom exceeding 0.06J/cm², caused minimal erythema but no burning or scarring. There was significant elastosis, detected by histology, after a total dose of about 3.5J/cm²: this was confirmed in measurements of elastin in whole skin by means of a radioimmunoassay for desmosine. Desmosine is found in elastin hydrolysates and is derived from crosslinks in the elastin molecule; it is a reliable index of total elastin. Typically, desmosine increased by about 2-3 fold after 3.5J/cm² of UVB irradiation. To effect repair of the dermal damage, the UVB irradiation was discontinued and animals were treated three times per week with various concentrations of the compounds of formula I dissolved in acetone. Solutions were made up freshly every week at concentrations such that the dose was delivered in 100µl acetone and applied topically to an area of about 10 cm² on the back of the animal with a plastic pipette; a control group treated with acetone alone was also included.
One skin replica for each animal was taken of these areas using a liquid dental impression material (SILFLO® - Flexico Developments Ltd., England). Wrinkles appeared in these impressions as ridges which cast a shadow when illuminated with low angle light. A characteristic of the wrinkling pattern was the occurrence of the ridges in a regularly-spaced array about 2-mm apart. The extent of wrinkling was visually assessed using this line pattern and assigned a value (Wrinkle Index) of zero to 4 with zero representing complete effacement of wrinkling and 4 representing the maximum degree of wrinkling. It was observed that compounds of formula I caused a dose-dependent effacement of the wrinkles with ED₅₀ values in the microgram range.

With `C/C(=C\c1ccc(SC(=O)N(C)C)cc1)c1ccc2c(c1)C(C)(C)CCC2(C)C` [Compound A], the “Repair Zone” value in test [1] (0.1 µg topical in 100 µl acetone) was 0.005 +/- 0.001 mm²; in test [1] (0.5 µg topical in 100 µl acetone), 0.006 +/- 0.003 mm²; in test [1] (2.0 µg topical in 100 µl acetone, P < 0.05 vs Control), 0.021 +/- 0.003* mm²; in test [1] (10.0 µg topical in 100 µl acetone), 0.015 +/- 0.004 mm²; in test [1] (50.0 µg topical in 100 µl acetone, P < 0.05 vs Control), 0.025 +/- 0.007* mm². The “Wrinkle Index” value was 1.4 +/- 0.5 in test [2] (0.1 µg topical, scale zero (complete effacement) to 4 (maximum wrinkling)); 1.0 +/- 0.3* in test [2] (0.5 µg topical, scale zero to 4, P < 0.05 vs Control); 0.8 +/- 0.2** in test [2] (2.0 µg topical, scale zero to 4, P < 0.01 vs Control); 0.3 +/- 0.1*** in test [2] (10.0 µg topical, scale zero to 4, P < 0.001 vs Control); 0.3 +/- 0.1*** in test [2] (50.0 µg topical, scale zero to 4, P < 0.001 vs Control).
